Like-named read-outs stand apart in the source and are kept apart here.
Experiments:
[1] = in water and nearly all solvents suitable for pharmaceutical, cosmetic, and food additive formulations (practically insoluble); cited from earlier work
[2] = Apigenin premixtures with various solubilizing agents, solubility; assay type: physicochemical; settings: organic solvent or mixture, thermodynamic from solid
Description: According to another embodiment of the invention, a process for preparing a hair care composition includes mixing apigenin and a solubilizing agent at a temperature sufficient to allow dissolution of the apigenin in the solubilizing agent to form a premixture; combining the premixture with an aqueous carrier to form the hair care composition; and optionally, adjusting the pH of the hair care composition with acid to within a range from about 3 to about 10. The premixture is prepared by combining apigenin and one or more solubilizing agents. Solubilization energy (e.g., stiffing, sonication, milling, heat, etc.) may be applied to accelerate the dissolution process. For example, a premixture of apigenin in triethanolamine may be prepared by combining apigenin and triethanolamine in a single vessel and heating the mixture to 70° C. while stirring until a clear solution results. According to one aspect of the exemplary method of making the premixture, the combined apigenin and triethanolamine are mixed at 50-100 rpm using a IKA RET CV-S1 mixer. According to another aspect, the combination is mixed at 300-500 rpm using a IKA Eurostar PWR CV-S1 mixer.

[3] = Hansen Solubility Parameter fitting for apigenin (HSPiP); settings: fitted in HSPiP v. 3.1.06 from solubility scores in 32 solvents
Description: (§1) HSPs and the solubility sphere for apigenin are optimized using the fitting method in the software HSPIP version 3.1.06 from Charles M. Hansen Consulting, Hørsholm, Denmark, hansen-solubility.com. Qualitative experimental solubilities for apigenin in 32 diverse potential solvents are determined using the scoring system at the bottom of Table 1. In the fitting function within HSPiP, solvents with scores of 1 and those with scores of 2-5 are categorized as “good” and “bad” solvents, respectively. […] Because the radius can be unbounded, fits with radii larger than 95% of the radius distribution are removed from these 50 trials (≦8.5 MPa^0.5). • 2. Determine the ranges for δD, δP, δH for the remaining fits. • 3. Locate the fit closest to this point using the Ra equation above. • 4. Chose the values for δD, δP, δH from Step 2 for the HSP's and the value of Ra from Step 3 for the radius.
Using this protocol, apigenin HSP values and solvent radius are determined to be δD=18.7, δP=13.5, δH=13.9 and Ra=6.8 (all in MPa^0.5). This sphere defines the initial region encompassing solvents into which apigenin will be soluble. (Note HSPiP v. 3.1.06 is used herein to determine all HSPs by 1) lookup if available within the program's internal database; 2) estimation if not in the database using the Y-MB method; or 3) via the procedure described above (apigenin only).)

[4] = Qualitative experimental solubility scoring of apigenin in 32 solvents; assay type: physicochemical; design: key: 1 = Completely Dissolved; 2 = Very Swollen; 3 = Swollen; 4 = Slightly Swollen; 5 = Hardly Swollen; 6 = Not touched; — = Assignment Unclear
Description: as §1

O=c1cc(-c2ccc(O)cc2)oc2cc(O)cc(O)c12 [apigenin, 5,7-dihydroxy-2-(4-hydroxyphenyl)-4H-1-benzopyran-4-one]
solubility [1]: less than 1 mg/ml | solubility ([2]; 1-Dimethylamino-2-propanol solution, in 1-Dimethylamino-2-propanol solution, room temp, 300 rpm): 20.2 mg/mL | solubility ([2]; 1-dimethylamino-2-propanol, in 1-Dimethylamino-2-propanol solution, room temp, 1500 sm): 20 mg/mL | solubility ([2]; 1-dimethylamino-2-propanol/TEA, in 1-Dimethylamino-2-propanol/TEA, room temp, 300-810 rpm): 17.3 mg/mL | solubility ([2]; 1-dimethylamino-2-propanol/ethanolamine, in 1-Dimethylamino-2-propanol/Ethanolamine, room temp, 300 rpm): 16.6 mg/mL | solubility ([2]; 1-dimethylamino-2-propanol/ethanolamine/TEA, in 1-Dimethylamino-2-propanol/Ethanolamine/TEA, room temp, 300-500 rpm): 16.5 mg/mL | solubility ([2]; 1-dimethylamino-2-propanol/ethylenediamine, in 1-Dimethylamino-2-propanol/Ethylenediamine, room temp, 400-600 rpm): 20.1 mg/mL | solubility ([2]; 1-methylimidazole, 82 °C, in 1-Methylimidazole, 100 rpm): 20.4 mg/mL | solubility ([2]; 2-amino-2-methyl-1-propanol, 71 °C, in 2-amino-2-methyl-1-propanol, 400 rpm): 20 mg/mL | solubility ([2]; 2-amino-2-methyl-1-propanol, 71 °C, in 2-amino-2-methyl-1-propanol, 450 rpm): 14.8 mg/mL | solubility ([2]; 2-dimethylaminoethanol, 29 °C, in 2-Dimethylaminoethanol, 300 rpm): 19.9 mg/mL | solubility ([2]; 2-dimethylaminoethanol, in 2-Dimethylaminoethanol, room temp, 300 rpm): 20.2 mg/mL | solubility ([2]; Dimethyl capramide, in Dimethyl capramide, Room temp, 400 rpm): 16 mg/mL | solubility ([2]; N-methylformamide, 101 °C, in N-Methylformamide, 400 rpm): 13.7 mg/mL | solubility ([2]; TEA (triethanolamine), 169 °C, in TEA, 450 rpm (synthetic apigenin)): 14.7 mg/mL | solubility ([2]; TEA (triethanolamine), in TEA, room temp, 450-590 rpm): 20 mg/mL | solubility ([2]; TEA/1-Dimethylamino-2-propanol, in TEA/1-Dimethylamino-2-propanol, room temp, 350-450 rpm): 17 mg/mL | solubility ([2]; TEA/1-Dimethylamino-2-propanol/Ethylenediamine, in TEA/1-Dimethylamino-2-propanol/Ethylenediamine, room temp, 330-600 rpm): 20.6 mg/mL | solubility ([2]; TEA/2-Dimethylaminoethanol/1-Dimethylamino-2-propanol, in TEA/2-Dimethylaminoethanol/1-Dimethylamino-2-propanol, room temp, 330-400, 1500 sm): 15 mg/mL | solubility ([2]; TEA/2-Dimethylaminoethanol/1-Dimethylamino-2-propanol, in TEA/2-Dimethylaminoethanol/1-Dimethylamino-2-propanol, room temp, 1500 sm): 15 mg/mL | solubility ([2]; Triethylene glycol, 156 °C, in Triethylene glycol, 300 rpm): 6.11 mg/mL | solubility ([2]; diethanolamine, 128 °C, in Diethanolamine, 550 rpm): 20.2 mg/mL | solubility ([2]; ethanolamine, 29 °C, in Ethanolamine, 350-500 rpm): 20.1 mg/mL | solubility ([2]; ethanolamine, 76 °C, in Ethanolamine, 300 rpm): 20.3 mg/mL | solubility ([2]; ethanolamine, 76 °C, in Ethanolamine, 400 rpm (synthetic apigenin)): 20.2 mg/mL | solubility ([2]; ethanolamine, in Ethanolamine, room temp, 350-740 rpm): 20.2 mg/mL | solubility ([2]; ethanolamine/TEA, 29 °C, in Ethanolamine/TEA, 300-600 rpm): 18 mg/mL | solubility ([2]; ethanolamine/TEA, in Ethanolamine/TEA, room temp, 350-500 rpm): 16 mg/mL | solubility ([2]; ethylenediamine, 28 °C, in Ethylenediamine, 320 rpm): 20 mg/mL | solubility ([2]; ethylenediamine, in Ethylenediamine, room temp, 320 rpm): 20.2 mg/mL | solubility ([2]; laurocapram, 98%, 140 °C, in Laurocapram, 500-600 rpm): 14 mg/mL | solubility ([2]; laurocapram, 98%, in Laurocapram, room temp, 500-600 rpm): 13.9 mg/mL | solubility ([2]; pyridine, in Pyridine, room temp, 300 rpm): 15.8 mg/mL | HSP δD (dispersion-force component) [3]: 18.7 MPa^0.5 | HSP δH (hydrogen-bonding component) [3]: 13.9 MPa^0.5 | HSP δP (polar component) [3]: 13.5 MPa^0.5 | solvent radius Ra [3]: 6.8 MPa^0.5 | Solubility Score ([4]; in 1,4-Dioxane): 5 | Solubility Score ([4]; in 1-Butanol): 4 | Solubility Score ([4]; in 2-Phenoxy Ethanol): 4 | Solubility Score ([4]; in 2-Propanol): 4 | Solubility Score ([4]; in Acetone): 5 | Solubility Score ([4]; in Acetonitrile): 5 | Solubility Score ([4]; in Carbon Tetrachloride): 6 | Solubility Score ([4]; in Chloroform): 5 | Solubility Score ([4]; in Cyclohexane): 6 | Solubility Score ([4]; in Cyclohexanol): 4 | Solubility Score ([4]; in Cyclohexanone): 4 | Solubility Score ([4]; in Diacetone Alcohol): 4 | Solubility Score ([4]; in Dichloromethane): 5 | Solubility Score ([4]; in Dimethyl Formamide (DMF)): 1 | Solubility Score ([4]; in Dimethyl Sulfoxide (DMSO)): 1 | Solubility Score ([4]; in Ethyl Acetate): 5 | Solubility Score ([4]; in Hexane): 6 | Solubility Score ([4]; in Methanol): 4 | Solubility Score ([4]; in Methyl Ethyl Ketone (MEK)): 5 | Solubility Score ([4]; in Methyl Isobutyl Ketone (MIBK)): 5 | Solubility Score ([4]; in N-Methyl-2-Pyrrolidone (NMP)): 1 | Solubility Score ([4]; in N-methylformamide): 1 | Solubility Score ([4]; in Propylene Carbonate): 5 | Solubility Score ([4]; in Propylene Glycol Monomethyl Ether): 2 | Solubility Score ([4]; in Propylene Glycol Monomethyl Ether Acetate): 5 | Solubility Score ([4]; in Tetrahydrofuran (THF)): 4 | Solubility Score ([4]; in Toluene): 6 | Solubility Score ([4]; in gamma-Butyrolactone (GBL)): 4 | Solubility Score ([4]; in n-Butyl Acetate): 5 | Solubility Score ([4]; in n-Butyl Acrylate): 5 | Solubility Score ([4]; in p-Xylene): 6
